Laboratory results published in PMC3833278, “De Novo Design of Protein Kinase Inhibitors by in Silico Identification of Hinge Region-Binding Fragments” (ACS Chemical Biology, 2013).
One block for each molecule: values may come before it.

How the values were obtained:
Type in all cases: biochemical
PIM3 = molecular target: T1, PIM3 (Homo sapiens, UniProt Q86V86); experiment: Radioactive (33P-ATP) filter-binding kinase assay, IC50
T1 construct: MRC Protein Phosphorylation Unit, University of Dundee (screening panel)
Experimental: (§1) Selected compounds were screened against a panel of mammalian kinases routinely run in the MRC Protein Phosphorylation Unit at the University of Dundee (www.kinase-screen.mrc.ac.uk).[21] Compounds were supplied in DMSO and screened in duplicates at 100 μM concentration using a radioactive (^33P-ATP) filter-binding-assay. For hit validation and all subsequent IC50 determinations, selected compounds were solubilized in DMSO at a top concentration of 51 mM and serially diluted to achieve 10-point titration of final assay concentrations from 1 mM to 30 nM. All IC50 determination assays were done in duplicate and the IC50 values were calculated using Prism (GraphPad Software, Inc.). All biochemical assays were run below the Km^app for the ATP for each enzyme allowing comparison of inhibition across the panel.

PIM1 = molecular target: T2, PIM1 (Homo sapiens, UniProt P11309); experiment: as above
T2 construct: MRC Protein Phosphorylation Unit, University of Dundee (screening panel)
Experimental: as §1

GSK-3β = GSK-3β (Homo sapiens, UniProt P49841); experiment: as above
SGK1 = molecular target: T3, SGK1 (Homo sapiens, UniProt O00141); experiment: as above
T3 construct: MRC Protein Phosphorylation Unit, University of Dundee (screening panel)
Experimental: as §1

EPH-B3 = molecular target: T4, EPH-B3 (Homo sapiens, UniProt P54753); experiment: as above
T4 construct: MRC Protein Phosphorylation Unit, University of Dundee (screening panel)
Experimental: as §1

FGF-R1 = molecular target: T5, FGF-R1 (Homo sapiens, UniProt P11362); experiment: as above
T5 construct: MRC Protein Phosphorylation Unit, University of Dundee (screening panel)
Experimental: as §1

SRPK1 = molecular target: T6, SRPK1 (Homo sapiens, UniProt Q96SB4); experiment: as above
T6 construct: MRC Protein Phosphorylation Unit, University of Dundee (screening panel)

Src = molecular target: T7, Src (Homo sapiens, UniProt P12931); experiment: as above
T7 construct: MRC Protein Phosphorylation Unit, University of Dundee (screening panel)
Experimental: as §1

RSK2 = molecular target: T8, RSK2 (Homo sapiens, UniProt P51812); experiment: as above
T8 construct: MRC Protein Phosphorylation Unit, University of Dundee (screening panel)
Experimental: as §1

MAPKAP-K3 = molecular target: T9, MAPKAP-K3 (Homo sapiens, UniProt Q16644); experiment: as above
T9 construct: MRC Protein Phosphorylation Unit, University of Dundee (screening panel)
Experimental: as §1

CK2 = molecular target: T10, CK2 (Homo sapiens, UniProt P68400); experiment: as above
T10 construct: MRC Protein Phosphorylation Unit, University of Dundee (screening panel)
Experimental: as §1

[1] = tested on: panel of 117 protein kinases; experiment: Kinase panel screen at 100 μM, radioactive filter-binding assay; conditions: for number of kinases inhibited with >40% inhibition: panel of 117 kinases; for number of kinases of the docking panel for which activity was found: only kinases in the docking panel
Experimental: (§2) A subset of library compounds was tested against a panel of 117 protein kinases as proof of concept study (Figure 4). The compounds were chosen to cover all six core fragments and to be fragment-sized (MW < 300 Da), therefore having a higher probability of inhibiting a kinase compared to more elaborated library compounds with the potential draw-back of having only moderate binding affinity.[25] […] According to these definitions, all assayed compounds were at least moderately active against at least one kinase (Figure 5a).
as §1

MSK1 = molecular target: T11, MSK1 (Homo sapiens, UniProt O75582); experiment: as above
T11 construct: MRC Protein Phosphorylation Unit, University of Dundee (screening panel)
Experimental: as §2, §1

VEG-FR = VEG-FR (Homo sapiens, UniProt P35968); experiment: Radioactive (33P-ATP) filter-binding kinase assay, IC50
TAK1 = molecular target: T12, TAK1 (Homo sapiens, UniProt O43318); experiment: as above
T12 construct: MRC Protein Phosphorylation Unit, University of Dundee (screening panel)
Experimental: as §1

HER4 = molecular target: T13, HER4 (Homo sapiens, UniProt Q15303); experiment: as above
T13 construct: MRC Protein Phosphorylation Unit, University of Dundee (screening panel)
Experimental: as §1

YES1 = molecular target: T14, YES1 (Homo sapiens, UniProt P07947); experiment: as above
T14 construct: MRC Protein Phosphorylation Unit, University of Dundee (screening panel)
Experimental: as §1

CHK2 = molecular target: T15, CHK2 (Homo sapiens, UniProt O96017); experiment: as above
T15 construct: MRC Protein Phosphorylation Unit, University of Dundee (screening panel)
Experimental: as §1

GCK = molecular target: T16, GCK (Homo sapiens, UniProt Q12851); experiment: as above
T16 construct: MRC Protein Phosphorylation Unit, University of Dundee (screening panel)
Experimental: as §1

IGF-1R = molecular target: T17, IGF-1R (Homo sapiens, UniProt P08069); experiment: as above
T17 construct: MRC Protein Phosphorylation Unit, University of Dundee (screening panel)
Experimental: as §1

MKK1 = molecular target: T18, MKK1 (Homo sapiens, UniProt Q02750); experiment: Kinase panel screen at 100 μM, radioactive filter-binding assay
T18 construct: MRC Protein Phosphorylation Unit, University of Dundee (screening panel)
Experimental: as §2, §1

CLK2 = CLK2 (Homo sapiens, UniProt P49760); experiment: Radioactive (33P-ATP) filter-binding kinase assay, IC50
CDK2 = CDK2 (Homo sapiens, UniProt P24941); experiment: as above
Aurora A = molecular target: T19, Aurora A (Homo sapiens, UniProt O14965); experiment: as above
T19 construct: MRC Protein Phosphorylation Unit, University of Dundee (screening panel)
Experimental: as §1

T10 sequence (P68400 whole entry): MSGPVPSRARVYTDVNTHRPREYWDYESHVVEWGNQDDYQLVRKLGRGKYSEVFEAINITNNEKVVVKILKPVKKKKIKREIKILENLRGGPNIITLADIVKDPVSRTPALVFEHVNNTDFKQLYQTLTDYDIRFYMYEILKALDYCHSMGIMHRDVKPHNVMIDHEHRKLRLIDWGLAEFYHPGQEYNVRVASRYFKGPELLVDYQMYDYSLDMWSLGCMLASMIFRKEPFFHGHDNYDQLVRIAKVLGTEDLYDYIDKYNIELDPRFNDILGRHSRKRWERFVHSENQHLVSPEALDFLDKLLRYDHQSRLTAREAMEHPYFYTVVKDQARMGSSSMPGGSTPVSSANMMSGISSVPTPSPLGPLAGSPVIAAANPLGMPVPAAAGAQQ
T5 sequence (P11362 22-822, species assumed): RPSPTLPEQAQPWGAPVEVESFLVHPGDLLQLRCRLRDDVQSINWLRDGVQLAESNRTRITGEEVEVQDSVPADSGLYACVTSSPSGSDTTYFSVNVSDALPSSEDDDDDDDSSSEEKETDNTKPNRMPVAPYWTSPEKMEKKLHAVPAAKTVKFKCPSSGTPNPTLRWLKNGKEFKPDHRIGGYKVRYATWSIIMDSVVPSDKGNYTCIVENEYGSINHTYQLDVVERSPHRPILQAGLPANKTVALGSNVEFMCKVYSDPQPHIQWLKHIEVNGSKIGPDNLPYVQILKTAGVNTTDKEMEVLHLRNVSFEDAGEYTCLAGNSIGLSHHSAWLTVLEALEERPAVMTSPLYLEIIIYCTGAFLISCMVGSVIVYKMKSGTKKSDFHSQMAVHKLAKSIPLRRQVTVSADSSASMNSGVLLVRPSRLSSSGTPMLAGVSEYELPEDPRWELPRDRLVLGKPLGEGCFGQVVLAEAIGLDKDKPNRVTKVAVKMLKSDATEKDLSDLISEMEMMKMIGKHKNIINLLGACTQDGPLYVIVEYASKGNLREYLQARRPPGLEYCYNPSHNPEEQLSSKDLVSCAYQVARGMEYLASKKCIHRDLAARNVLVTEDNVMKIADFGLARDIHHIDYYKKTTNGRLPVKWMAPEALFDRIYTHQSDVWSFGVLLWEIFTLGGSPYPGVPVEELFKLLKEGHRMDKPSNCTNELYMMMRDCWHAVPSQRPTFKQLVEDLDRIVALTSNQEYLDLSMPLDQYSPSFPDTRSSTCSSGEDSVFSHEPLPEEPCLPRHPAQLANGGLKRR
T17 sequence (P08069 31-1367, species assumed): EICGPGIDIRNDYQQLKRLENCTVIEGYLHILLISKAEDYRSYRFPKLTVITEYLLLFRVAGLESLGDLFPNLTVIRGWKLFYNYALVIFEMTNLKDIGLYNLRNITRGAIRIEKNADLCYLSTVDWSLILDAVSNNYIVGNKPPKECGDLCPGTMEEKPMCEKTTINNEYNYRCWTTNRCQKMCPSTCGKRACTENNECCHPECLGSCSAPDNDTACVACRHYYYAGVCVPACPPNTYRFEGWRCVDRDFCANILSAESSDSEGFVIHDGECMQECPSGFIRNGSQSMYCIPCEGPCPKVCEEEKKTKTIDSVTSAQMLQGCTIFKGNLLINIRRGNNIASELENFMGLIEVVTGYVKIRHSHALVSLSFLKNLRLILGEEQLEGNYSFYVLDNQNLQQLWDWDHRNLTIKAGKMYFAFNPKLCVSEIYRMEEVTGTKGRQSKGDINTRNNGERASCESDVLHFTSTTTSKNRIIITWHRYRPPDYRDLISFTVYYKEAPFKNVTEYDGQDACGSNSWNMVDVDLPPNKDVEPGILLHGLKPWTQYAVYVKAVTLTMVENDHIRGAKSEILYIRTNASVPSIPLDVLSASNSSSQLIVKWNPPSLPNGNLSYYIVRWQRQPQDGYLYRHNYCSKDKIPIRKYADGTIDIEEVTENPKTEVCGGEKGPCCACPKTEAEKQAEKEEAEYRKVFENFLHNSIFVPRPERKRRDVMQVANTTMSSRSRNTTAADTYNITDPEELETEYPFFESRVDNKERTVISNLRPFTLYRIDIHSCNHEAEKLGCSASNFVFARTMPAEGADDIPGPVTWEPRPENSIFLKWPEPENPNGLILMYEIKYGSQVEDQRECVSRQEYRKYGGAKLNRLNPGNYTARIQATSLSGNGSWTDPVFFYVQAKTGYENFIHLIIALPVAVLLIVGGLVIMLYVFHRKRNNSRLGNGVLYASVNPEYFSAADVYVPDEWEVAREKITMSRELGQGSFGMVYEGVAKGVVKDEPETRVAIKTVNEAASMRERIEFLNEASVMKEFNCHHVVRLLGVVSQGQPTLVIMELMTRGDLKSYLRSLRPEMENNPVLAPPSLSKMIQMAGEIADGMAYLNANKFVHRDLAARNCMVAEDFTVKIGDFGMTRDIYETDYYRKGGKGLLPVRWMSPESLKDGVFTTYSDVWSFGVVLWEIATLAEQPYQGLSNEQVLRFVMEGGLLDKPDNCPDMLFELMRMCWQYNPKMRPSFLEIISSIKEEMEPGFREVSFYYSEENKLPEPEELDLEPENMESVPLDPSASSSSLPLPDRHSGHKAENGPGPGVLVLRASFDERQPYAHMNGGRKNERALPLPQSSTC
T12 sequence (O43318 1-303 limits assumed): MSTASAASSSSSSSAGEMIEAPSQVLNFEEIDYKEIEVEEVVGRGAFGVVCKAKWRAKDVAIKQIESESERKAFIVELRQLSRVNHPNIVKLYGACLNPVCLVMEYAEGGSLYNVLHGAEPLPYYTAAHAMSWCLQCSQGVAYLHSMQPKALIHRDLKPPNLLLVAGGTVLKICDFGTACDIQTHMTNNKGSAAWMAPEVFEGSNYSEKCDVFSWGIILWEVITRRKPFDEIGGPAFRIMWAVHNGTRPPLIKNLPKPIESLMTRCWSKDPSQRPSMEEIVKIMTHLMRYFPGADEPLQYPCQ
T7 sequence (P12931 whole entry, species assumed): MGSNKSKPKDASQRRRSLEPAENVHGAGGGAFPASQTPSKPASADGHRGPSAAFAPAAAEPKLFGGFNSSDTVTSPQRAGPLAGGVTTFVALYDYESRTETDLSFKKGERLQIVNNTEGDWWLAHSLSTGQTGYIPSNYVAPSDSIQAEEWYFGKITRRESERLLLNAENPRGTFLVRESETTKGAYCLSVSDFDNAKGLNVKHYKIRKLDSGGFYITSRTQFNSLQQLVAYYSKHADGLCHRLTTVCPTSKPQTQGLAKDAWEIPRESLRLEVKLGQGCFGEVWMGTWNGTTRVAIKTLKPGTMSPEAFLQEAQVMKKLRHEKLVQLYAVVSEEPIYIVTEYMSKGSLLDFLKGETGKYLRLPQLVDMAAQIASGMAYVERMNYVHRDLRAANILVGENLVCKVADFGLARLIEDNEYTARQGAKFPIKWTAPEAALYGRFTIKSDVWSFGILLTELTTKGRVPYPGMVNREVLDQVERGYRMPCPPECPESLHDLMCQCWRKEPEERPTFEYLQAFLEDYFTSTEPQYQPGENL
T16 sequence (Q12851 whole entry): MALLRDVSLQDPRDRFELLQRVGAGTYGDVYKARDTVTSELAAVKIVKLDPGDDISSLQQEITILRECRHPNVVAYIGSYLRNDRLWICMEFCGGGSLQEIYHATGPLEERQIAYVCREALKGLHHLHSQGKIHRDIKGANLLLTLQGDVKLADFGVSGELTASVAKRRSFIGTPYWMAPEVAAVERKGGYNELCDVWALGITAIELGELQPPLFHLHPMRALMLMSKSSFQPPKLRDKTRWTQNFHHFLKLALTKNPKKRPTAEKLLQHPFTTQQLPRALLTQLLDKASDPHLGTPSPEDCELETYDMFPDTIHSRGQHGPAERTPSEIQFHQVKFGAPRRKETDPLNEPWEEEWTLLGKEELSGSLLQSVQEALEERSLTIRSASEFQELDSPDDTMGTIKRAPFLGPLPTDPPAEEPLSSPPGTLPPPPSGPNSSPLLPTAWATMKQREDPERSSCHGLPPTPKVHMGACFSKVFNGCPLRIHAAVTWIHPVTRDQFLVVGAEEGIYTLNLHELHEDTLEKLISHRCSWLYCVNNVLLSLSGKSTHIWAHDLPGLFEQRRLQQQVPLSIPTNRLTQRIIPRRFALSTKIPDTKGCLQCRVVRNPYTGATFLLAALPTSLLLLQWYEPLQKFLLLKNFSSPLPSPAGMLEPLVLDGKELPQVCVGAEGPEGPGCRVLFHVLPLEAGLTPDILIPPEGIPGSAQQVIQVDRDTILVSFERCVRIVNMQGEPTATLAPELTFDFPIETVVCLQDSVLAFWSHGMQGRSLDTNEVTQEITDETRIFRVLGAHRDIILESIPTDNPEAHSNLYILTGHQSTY
T19 sequence (O14965 whole entry): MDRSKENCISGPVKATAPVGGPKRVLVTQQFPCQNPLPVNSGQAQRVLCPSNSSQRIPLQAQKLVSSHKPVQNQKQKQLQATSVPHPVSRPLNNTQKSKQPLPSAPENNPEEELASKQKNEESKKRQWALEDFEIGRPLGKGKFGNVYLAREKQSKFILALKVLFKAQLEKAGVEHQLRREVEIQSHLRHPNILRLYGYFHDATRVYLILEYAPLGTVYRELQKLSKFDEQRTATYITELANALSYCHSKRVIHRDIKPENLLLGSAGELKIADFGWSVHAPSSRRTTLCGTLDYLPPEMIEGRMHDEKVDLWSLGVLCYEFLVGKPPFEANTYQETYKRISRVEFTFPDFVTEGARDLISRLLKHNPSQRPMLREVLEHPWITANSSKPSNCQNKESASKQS
T18 sequence (Q02750 whole entry, species assumed): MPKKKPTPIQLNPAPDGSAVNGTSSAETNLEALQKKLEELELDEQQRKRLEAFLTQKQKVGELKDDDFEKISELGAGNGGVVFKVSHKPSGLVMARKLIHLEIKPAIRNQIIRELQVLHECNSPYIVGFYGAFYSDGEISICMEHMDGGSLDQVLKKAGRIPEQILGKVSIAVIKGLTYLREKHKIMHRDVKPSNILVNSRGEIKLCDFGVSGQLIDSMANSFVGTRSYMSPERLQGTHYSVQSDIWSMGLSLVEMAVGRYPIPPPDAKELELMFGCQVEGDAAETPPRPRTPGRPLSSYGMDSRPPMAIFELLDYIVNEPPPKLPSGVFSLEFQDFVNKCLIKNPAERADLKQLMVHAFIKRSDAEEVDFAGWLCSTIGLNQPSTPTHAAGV

LE (PIM3): 0.40 kcal/mol heavy atom
LE (PIM1): 0.38 kcal/mol heavy atom
Structure (SMILES): O=c1cc(-c2ccccc2F)nc2[nH]ccn12 [F3]

LE (GSK-3β): 0.32 kcal/mol heavy atom
LE (SGK1): 0.28 kcal/mol heavy atom
Structure (SMILES): COc1ccc(-c2cc3c(=O)[nH]cnc3s2)cc1OC [C2]

LE (EPH-B3): 0.33 kcal/mol heavy atom
LE (FGF-R1): 0.29 kcal/mol heavy atom
Structure (SMILES): CC(C)(C)Nc1c(C2CC2)nc2[nH]cnn12 [D1]

LE (SRPK1): 0.28 kcal/mol heavy atom
LE (Src): 0.28 kcal/mol heavy atom
LE (RSK2): 0.26 kcal/mol heavy atom
LE (MAPKAP-K3): 0.33 kcal/mol heavy atom
LE (CK2): 0.33 kcal/mol heavy atom
Structure (SMILES): CC1CN(c2nc3ccccn3c(=O)c2N)CC(C)O1 (centres unmarked) [A1]

number of kinases inhibited with >40% inhibition [1]: one
inhibition at 100 µM (MSK1): > 40%
Structure (SMILES): O=C(Nc1cnc2[nH]cnn2c1=O)c1ccccc1 [E1]

LE (VEG-FR): 0.39 kcal/mol heavy atom
LE (TAK1): 0.43 kcal/mol heavy atom
LE (Src): 0.41 kcal/mol heavy atom
LE (HER4): 0.41 kcal/mol heavy atom
LE (YES1): 0.41 kcal/mol heavy atom
LE (CHK2): 0.42 kcal/mol heavy atom
LE (GCK): 0.46 kcal/mol heavy atom
LE (IGF-1R): 0.40 kcal/mol heavy atom
number of kinases of the docking panel for which activity was found [1]: 31
number of kinases inhibited with >40% inhibition [1]: 63
Structure (SMILES): Nc1nc2cnc(-c3ccccc3)cn2n1 [B1]

Structure (SMILES): CC(=O)Nc1nc2cnc(-c3c(C)cccc3C)cn2n1 [B4]
number of kinases of the docking panel for which activity was found [1]: did not inhibit any kinase in the docking panel

inhibition at 100 µM (MKK1): > 40%
number of kinases inhibited with >40% inhibition [1]: one
Structure (SMILES): O=c1c(NC(=S)NCc2ccccc2)cnc2[nH]ccn12 [F2]

LE (CLK2): 0.32 kcal/mol heavy atom
LE (CDK2): 0.33 kcal/mol heavy atom
LE (TAK1): 0.32 kcal/mol heavy atom
LE (GCK): 0.38 kcal/mol heavy atom
LE (CK2): 0.27 kcal/mol heavy atom
LE (FGF-R1): 0.25 kcal/mol heavy atom
LE (IGF-1R): 0.30 kcal/mol heavy atom
LE (Aurora A): 0.26 kcal/mol heavy atom
number of kinases inhibited with >40% inhibition [1]: 55
Structure (SMILES): Nc1cnc2c(-c3c(F)cccc3F)cccn2c1=O [A2]
